Data: ChEMBL document CHEMBL1255550, “Natural product derivatives with bactericidal activity against Gram-positive pathogens including methicillin-resistant Staphylococcus aureus and vancomycin-resistant Enterococcus faecalis” (2010)
Converted amounts (≈) assume the structure as drawn.

Assays:
Format in all cases: functional
[1] = system: Staphylococcus aureus; assay: Antibacterial activity against Staphylococcus aureus
[2] = system: Bacillus subtilis; assay: Antibacterial activity against Bacillus subtilis
[3] = system: Bacillus anthracis; assay: Antibacterial activity against Bacillus anthracis
[4] = system: Enterococcus faecalis; assay: Antibacterial activity against vancomycin-resistant Enterococcus faecalis
[5] = system: Staphylococcus aureus; assay: Antibacterial activity against methicillin-resistant Staphylococcus aureus
[6] = system: Bacillus subtilis; assay: Antibacterial activity against Bacillus subtilis assessed as reduction of bacterial viability at 2 times MIC after 30mins

For COC(=O)CCC(=O)O[C@@H](C)C[C@@H]1CC[C@H]([C@@H](C)Cn2cc(-c3cccc(NC(C)=O)c3)nn2)O1 (single isomer, unassigned), the MIC [1] was over 730 µg/mL, the MIC [2] was over 730 µg/mL and the MIC [3] was over 730 µg/mL. It also gave an MIC [4] of over 730 µg/mL.

Compound CC(CC1CCC(C(C)Cn2cc(-c3ccccn3)nn2)O1)OC(=O)c1ccccc1 (racemic) has an MIC [1] of 630 µg/mL (≈ 1500 µM), an MIC [2] of 40 µg/mL (≈ 95.1 µM) and an MIC [3] of 630 µg/mL (≈ 1500 µM).

For C[C@H](C[C@H]1CC[C@@H]([C@H](C)Cn2cc(-c3ccccn3)nn2)O1)OC(=O)c1ccccc1, the MIC [1] was 320 µg/mL (≈ 761 µM), the MIC [2] was 20 µg/mL (≈ 47.6 µM) and the MIC [3] was 320 µg/mL (≈ 761 µM). The MIC [5] was 210 µg/mL (≈ 499 µM) and the MIC [4] was 26 µg/mL (≈ 61.8 µM).

Compound COC(=O)CCC(=O)O[C@H](C)C[C@H]1CC[C@@H]([C@H](C)Cn2cc(-c3cccc(NC(C)=O)c3)nn2)O1 has an MIC [1] of 370 µg/mL (≈ 760 µM), an MIC [2] of 91 µg/mL (≈ 187 µM) and an MIC [3] of 180 µg/mL (≈ 370 µM). It also gave an MIC [5] of 122 µg/mL (≈ 251 µM), an MIC [4] of 61 µg/mL (≈ 125 µM) and a log10cfu [6] of over 3.

For Br.COC(=O)CCC(=O)OC(C)CC1CCC(C(C)Cn2cc(-c3cccc(NC(C)=O)c3)nn2)O1 (racemic), the MIC [1] was 370 µg/mL, the MIC [2] was 180 µg/mL and the MIC [3] was 370 µg/mL.

For C[C@@H](C[C@@H]1CC[C@H]([C@@H](C)Cn2cc(-c3ccccn3)nn2)O1)OC(=O)c1ccccc1 (single isomer, unassigned), the MIC [1] was over 630 µg/mL, the MIC [2] was over 630 µg/mL and the MIC [3] was over 630 µg/mL. It also gave an MIC [4] of over 630 µg/mL.
